The test system of this assay is Vibrio cholerae.

Molecules are shown by their SMILES.

Description: Inhibition of Vibrio cholerae neuraminidase using 4-MU-NANA as substrate preincubated for 15 mins prior addition of substrate measured at 5 mins intervals by fluorimetry relative to control

`COc1ncc(C(F)(F)F)cc1NC(=O)OCc1cn(-c2ccc(O[C@]3(C(=O)O)C[C@H](O)[C@@H](NC(C)=O)[C@H]([C@H](O)[C@H](O)CO)O3)c(C(F)F)c2)nn1` gave a Kinact of 0.091 min⁻¹ and a T1/2 of 7.6 min.

The values above are taken from ChEMBL document CHEMBL2021882, “Aglycone-focused randomization of 2-difluoromethylphenyl-type sialoside suicide substrates for neuraminidases” (Bioorg Med Chem, 2012).
